According to patent US20240000977A1, “METHODS AND KITS FOR DIAGNOSING AND TREATING CANCERS” (Baruch S. Blumberg Institute, priority 2020, published 2024):

Key:
SETD2−/− cells = conditions: cited from earlier work
DACH1^+/+ 3T3 cells = assay: BrdU / propidium iodide flow cytometry of S-phase cells after WEE1 inhibition; type: cell-based; conditions: Wt (DACH1^+/+) 3T3 cells, Adavosertib 10 μM, 24 h, 20 μM BrdU pulse 30 min; mean of 4 experiments
Procedure: (§1) DACH1 deficiency was determined to promote accumulation of non-proliferative S-phase cells by WEE1 kinase inhibitors. DACH1^+/+ and DACH1^−/− 3T3 cells were treated for 24 h with Adavosertib at 10 μM, a small molecule inhibitor of the tyrosine kinase WEE1, or with DMSO, as the control (see FIGS. 18A and 18B). Prior to harvest, the 3T3 cells were pulsed with 20 μM BrdU for 30 min at a temperature of 37° C. to enable detection of cells with active DNA replication. After harvesting the 3T3 cells, the 3T3 cells were stained with propidium iodide (DNA content) and an anti-BrdU antibody (Abcam). […] Representative FACS plots are shown (see FIGS. 19A-19E). […] Data is shown as mean±SEM for 4 separate experiments.

DACH1^−/− 3T3 cells = assay: as above; type: cell-based; conditions: 24 h
Procedure: as §1

[1] = tested on: H3K36me3-deficient tumor xenografts; conditions: cited from earlier work
L1210 leukemia = conditions: murine L1210 leukemia, single agent; cited from earlier work

Compound | sensitivity of cells (SETD2−/− cells) | non-proliferating S-phase population (DACH1^+/+ 3T3 cells) [%] | BrdU incorporation upon inhibition of WEE1 kinase (DACH1^−/− 3T3 cells; 10 μM) | non-proliferating S-phase population (DACH1^−/− 3T3 cells; Adavosertib 10 μM, 20 μM BrdU pulse 30 min, mean of 4 experiments) [%] | effect on tumor xenografts [1] | antileukemic effects, agent given alone (L1210 leukemia)
C=CCn1c(=O)c2cnc(Nc3ccc(N4CCN(C)CC4)cc3)nc2n1-c1cccc(C(C)(C)O)n1 [Adavosertib] | hypersensitive | 13.8 | failed to incorporate the BrdU | 38.3 | regresses | –
IL-12: IL-12 proteins, cytokine used in chemo-immunotherapy | – | – | – | – | – | moderate antileukemic effects
